Results reported in paper PMC7321319, “Comparative Molecular Transporter Properties of Cyclic Peptides Containing Tryptophan and Arginine Residues Formed through Disulfide Cyclization” (Molecules, 2020).

System: LLC-PK1, CCRF-CEM, CRL-1739, MDA-MB-231 and SKOV-3 cell lines
Experiment: MTS cell viability assay, statements over the whole cell line panel
Assay type: cell-based
Settings: Dox 5 µM, 24 and 72 h, 37 °C, n = 3
Description: To evaluate the cytotoxicity of synthesized linear (C(WR)xC) and cyclic [C(WR)xC] […] Doxorubicin (Dox, 5 µM) was used as a positive control.
The in vitro cytotoxicity of the peptides was evaluated using the human leukemia carcinoma cell line (CCRF-CEM), normal kidney cell line (LLC-PK1), gastric adenocarcinoma (CRL-1739), ovarian (SKOV-3), and breast carcinoma (MDA-MB-231) cell lines to determine the toxicity of the peptides according to the previously reported procedure [17]. CCRF-CEM cells were seeded at 50,000 cells in 0.1 mL per well in 96-well plates. Other cells were seeded at 5,000 cells in 0.1 mL per well in 96-well plates. All cell lines were seeded in RPMI-1640 medium (pH 7.4) containing FBS (10%), 24 h prior to the experiment. […] This generates formazan crystals which are soluble in cell culture medium and can be measured at 490 nm. Cell viability was then determined by measuring the fluorescence intensity at 490 nm using a SpectraMaxM2 microplate spectrophotometer (Molecular Devices, San Jose, CA, USA). The percentage of cell survival was calculated as [(OD value of cells treated with the test mixture of compounds)−(OD value of culture medium)]/[(OD value of control cells) − (OD value of culture medium)] × 100%.

COc1cccc2c1C(=O)c1c(O)c3c(c(O)c1C2=O)C[C@@](O)(C(=O)CO)C[C@@H]3O[C@H]1C[C@H](N)[C@H](O)[C@H](C)O1 [Dox, Doxorubicin]
cytotoxicity (percentage of cell survival), positive control: cytotoxic even at 5 µM
